Assay [1] addresses Sodium-dependent dopamine transporter (Rattus norvegicus, UniProt P23977). Put plainly: Affinity for dopamine transporter was assessed by the ability to displace [3H]WIN-35428 from rat caudate-putamen tissue. It counts as tissue-based.
Assay [2] has as its system Rattus norvegicus. The assay can be described thus: Percent maximum effect at 89.3 mmol/kg dose that causes compound-appropriate response in rats, trained to discriminate cocaine. It counts as functional.
The species named for assay [3] is Rattus norvegicus. Put plainly: Ability to inhibit [3H]dopamine uptake was measured in a chopped tissue assay. It counts as functional, organism-based.
Assay [4] concerns Rattus norvegicus. Put plainly: Percent maximum effect at 39.0 mmol/kg dose that causes compound-appropriate response in rats, trained to discriminate cocaine. It counts as functional.
For assay [5], the target named is Norepinephrine transporter (Rattus norvegicus, UniProt Q9WTR4). The assay can be described thus: Binding affinity for Norepinephrine transporter is assessed from the ability to displace [3H]nisoxetine from rat frontal cortex. It counts as tissue-based.
Chain of Norepinephrine transporter (Q9WTR4 whole entry): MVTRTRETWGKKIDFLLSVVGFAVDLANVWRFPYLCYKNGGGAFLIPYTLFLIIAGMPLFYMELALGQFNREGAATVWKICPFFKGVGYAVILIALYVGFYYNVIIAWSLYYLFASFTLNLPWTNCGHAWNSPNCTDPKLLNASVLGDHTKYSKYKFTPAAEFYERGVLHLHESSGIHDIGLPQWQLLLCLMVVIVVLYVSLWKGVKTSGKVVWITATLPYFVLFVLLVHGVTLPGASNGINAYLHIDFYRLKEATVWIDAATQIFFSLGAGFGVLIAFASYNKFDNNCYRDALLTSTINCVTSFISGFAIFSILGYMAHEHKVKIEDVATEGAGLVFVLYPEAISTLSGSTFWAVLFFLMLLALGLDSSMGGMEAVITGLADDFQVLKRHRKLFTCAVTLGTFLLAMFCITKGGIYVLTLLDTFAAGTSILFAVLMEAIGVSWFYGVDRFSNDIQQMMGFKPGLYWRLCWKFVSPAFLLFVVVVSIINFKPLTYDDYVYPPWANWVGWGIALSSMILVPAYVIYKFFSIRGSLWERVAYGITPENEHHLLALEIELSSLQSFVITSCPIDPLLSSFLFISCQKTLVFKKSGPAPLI
The subject of assay [6] is Rattus norvegicus. The assay can be described thus: Percent maximum effect at 27.0 mmol/kg dose that causes compound-appropriate response in rats, trained to discriminate cocaine. In kind it is functional.
For assay [7], the system named is Rattus norvegicus. The assay can be described thus: Percent maximum effect at 54.9 mmol/kg dose that causes compound-appropriate response in rats, trained to discriminate cocaine. It counts as functional.
For assay [8], the target named is Sodium-dependent serotonin transporter (Rattus norvegicus, UniProt P31652). Put plainly: Binding affinity for serotonin transporter is assessed from the ability to displace [3H]citalopram from rat brain.
Chain of Sodium-dependent serotonin transporter (P31652 whole entry): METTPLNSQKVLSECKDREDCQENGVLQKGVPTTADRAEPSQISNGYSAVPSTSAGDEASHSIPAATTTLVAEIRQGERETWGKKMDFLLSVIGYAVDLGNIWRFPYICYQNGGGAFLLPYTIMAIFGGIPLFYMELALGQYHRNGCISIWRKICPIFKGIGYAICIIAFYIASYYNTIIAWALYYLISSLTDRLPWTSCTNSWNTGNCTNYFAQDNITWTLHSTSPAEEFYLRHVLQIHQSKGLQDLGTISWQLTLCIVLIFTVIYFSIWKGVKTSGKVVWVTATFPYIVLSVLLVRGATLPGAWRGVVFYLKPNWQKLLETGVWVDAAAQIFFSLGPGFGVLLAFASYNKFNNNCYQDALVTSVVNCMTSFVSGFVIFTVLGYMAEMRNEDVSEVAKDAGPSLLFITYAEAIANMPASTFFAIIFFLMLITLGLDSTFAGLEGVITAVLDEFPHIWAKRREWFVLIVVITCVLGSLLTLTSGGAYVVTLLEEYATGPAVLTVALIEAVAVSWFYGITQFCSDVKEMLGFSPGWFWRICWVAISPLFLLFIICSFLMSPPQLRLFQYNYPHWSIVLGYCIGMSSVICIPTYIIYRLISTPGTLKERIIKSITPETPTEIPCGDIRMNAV
The species entered for assay [9] is Rattus norvegicus. The assay can be described thus: Effective dose that causes 50 percent of compound-appropriate response in rats, trained to discriminate cocaine; NS means Nonsignificant linear regression. In kind it is functional, organism-based.
Assay [10] concerns Rattus norvegicus. Put plainly: Percent maximum effect at 2.69 mmol/kg dose that causes compound-appropriate response in rats, trained to discriminate cocaine. It counts as functional.
For assay [11], the species on record is Rattus norvegicus. Put plainly: Effective dose that causes 50 percent of compound-appropriate response in rats, trained to discriminate cocaine; Value ranges from (9.07-256), effect is nonsignificant at this dose. In kind it is functional.
For assay [12], the system named is Rattus norvegicus. Put plainly: Percent maximum effect at 37.7 mmol/kg dose that causes compound-appropriate response in rats, trained to discriminate cocaine. In kind it is functional.
The species named for assay [13] is Rattus norvegicus. Put plainly: Effective dose that causes 50 percent of compound-appropriate response in rats, trained to discriminate cocaine; Value ranges from (22-51.4), effect is nonsignificant at this dose. In kind it is functional.
Assay [14] concerns Rattus norvegicus. Put plainly: Percent maximum effect at 45.7 mmol/kg dose that causes compound-appropriate response in rats, trained to discriminate cocaine. In kind it is functional.
Assay [15] is filed under the species Rattus norvegicus. Put plainly: Effective dose that causes 50 percent of compound-appropriate response in rats, trained to discriminate cocaine; Value ranges from (17.1-1.22)x10E5, effect is nonsignificant at this dose. It counts as functional.

Molecules are shown by their SMILES.

Chain of Sodium-dependent dopamine transporter (P23977 whole entry): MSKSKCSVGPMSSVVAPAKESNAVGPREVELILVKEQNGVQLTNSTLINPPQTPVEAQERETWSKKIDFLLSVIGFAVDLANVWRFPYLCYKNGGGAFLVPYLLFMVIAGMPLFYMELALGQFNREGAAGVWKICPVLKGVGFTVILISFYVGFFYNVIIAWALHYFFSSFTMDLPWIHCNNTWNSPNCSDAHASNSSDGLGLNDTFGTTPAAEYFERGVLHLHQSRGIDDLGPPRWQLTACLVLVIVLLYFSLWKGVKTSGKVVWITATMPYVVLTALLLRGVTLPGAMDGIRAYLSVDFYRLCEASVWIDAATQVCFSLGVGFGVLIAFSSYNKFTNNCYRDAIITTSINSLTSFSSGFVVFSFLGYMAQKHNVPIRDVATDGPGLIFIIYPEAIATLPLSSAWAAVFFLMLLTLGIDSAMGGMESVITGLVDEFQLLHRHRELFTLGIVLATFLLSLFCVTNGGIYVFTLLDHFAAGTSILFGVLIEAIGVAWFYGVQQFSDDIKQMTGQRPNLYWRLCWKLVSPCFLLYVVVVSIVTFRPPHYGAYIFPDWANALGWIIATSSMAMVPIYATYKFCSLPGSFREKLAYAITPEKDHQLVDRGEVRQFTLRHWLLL

The Ki is the equilibrium dissociation constant of an inhibitor or competing ligand from its target. A lower Ki goes with a stronger hold on the target. One may read the IC50 as the point on the concentration scale where inhibition reaches its midpoint. The low end stands for greater potency in that assay, the high end for weaker potency in that assay. In assay [1], `COC(=O)/C=C/C1C(c2ccc(C)cc2)C[C@H]2CCC1N2C` (some centres undefined) gave a Ki of 123 nM. In assay [2], this compound returned a Max effect of 69.9%. It took 311 nM to reach half-maximal inhibition in [3] (IC50).

Turning to `Cc1ccc(CC2C(c3ccc(C)cc3)C[C@H]3CCC2N3C)cc1` (some centres undefined), the figures for the Ki in assay [1] and in assay [5] were 11 nM and 271 nM, respectively. For the same compound, in assay [4], the Max effect is listed as 82.8%. The compound further had an IC50 in assay [3] of 16 nM.

For `Cc1ccc(C(=O)C2C(c3ccc(C)cc3)CC3CCC2N3C)cc1` (centres undefined), in assay [1], the Ki came to 17 nM. The compound further yielded a concentration for half-maximal inhibition (IC50) in assay [3] of 82 nM. This compound yielded a Max effect in assay [6] of 100%.

In assay [1], `Cc1ccc([C@H]2C[C@H]3CC[C@H]([C@@H]2[C@@H](O)c2ccc(C)cc2)N3C)cc1` yielded a Ki of 25 nM. This compound also had a 50% inhibitory concentration (IC50) in [3] of 58 nM.

Take `Cc1ccc(C2C[C@H]3CCC(C2CCCO)N3C)cc1` (some centres undefined): in assay [7], the Max effect turned out to be 93.9%. The compound also returned a Ki in [1] of 136 nM. The compound also showed a half-inhibitory concentration (IC50) in assay [3] of 266 nM.

The ED50 is the dose at which the effect has come halfway, by size or by number of responders. Turning to `Cc1ccc(C2C[C@H]3CCC([C@@H]2CO)N3C)cc1` (some centres undefined), the Ki came out at 16000 nM in [8], 3490 nM in [1] and 16800 nM in [5]. The NS entry in [9] is “Nonsignificant linear regression”. In addition, the Max effect in [10] turned out to be 2.96%. The same compound yielded an ED50 in assay [11] of 20600 µmol/kg. This compound yielded an IC50 in assay [3] of 4040 nM.

Turning to `Cc1ccc([C@@H](O)[C@@H]2C3CC[C@H](C[C@@H]2c2ccc(C)cc2)N3C)cc1`, the Ki in assay [8] was 70 nM; in assay [1] it was 85 nM; in assay [5] it was 214 nM. The compound further showed a Max effect in [12] of 66.7%. Moreover, the ED50 in assay [13] was 31400 µmol/kg. For the same compound, in assay [3], it took 107 nM to reach half-maximal inhibition (IC50).

`Cc1ccc([C@H]2C[C@H]3CC[C@H]([C@H]2[C@@H](O)c2ccc(C)cc2)N3C)cc1` had a Max effect in assay [14] of 97.9%. Besides, the results for the inhibitory constant (Ki) in [8], in [1] and in [5] were 66 nM, 14 nM and 464 nM, respectively. Also, it took a dose of 61600 µmol/kg to reach the 50% effect level in [15] (ED50). Moreover, in [3], the half-maximal inhibitory concentration (IC50) stood at 144 nM.

The record behind these values is ChEMBL document CHEMBL1135882, “Synthesis and biological evaluation of 2-substituted 3beta-tolyltropane derivatives at dopamine, serotonin, and norepinephrine transporters” (J Med Chem, 2002).
